# Calls of active or inactive are those of the source. The rule behind the calls is not given here.
# How the values were obtained:
# [1] = test system: Mus musculus; experiment: (§1) Inhibition of mRNA splicing of SMN2 exon 7 in neonatal delta7 mouse harboring FVB.Cg-Tg(SMN2 delta7)4299Ahmb Tg(SMN2)-89Ahmb Smn1tm1Msd/J assessed as increase in SMN protein level in quadriceps at 3 mg/kg, ip qd administered from postnatal day 3 to postnatal day 9 measured 1 hr after last dose by HTRF assay relative to control; assay type: functional; design: scale not given: the % may be the effect or the level left
# [2] = test system: Mus musculus; experiment: Inhibition of mRNA splicing of human SMN2 exon 7 in transgenic SMA C/C-allele mouse brain administered orally qd for 10 days; assay type: functional, organism-based
# [3] = test system: Mus musculus; experiment: Increase in survival of ip dosed delta7 mouse harboring FVB.Cg-Tg(SMN2 delta7)4299Ahmb Tg(SMN2)89Ahmb Smn1tm1Msd/J administered intraperitoneally once daily from PND3 to PND23 followed by oral gavage dosing qd from PND24 to PND65; assay type: functional, organism-based
# [4] = test system: Mus musculus; experiment: Increase in survival of delta7 mouse harboring FVB.Cg-Tg(SMN2 delta7)4299Ahmb Tg(SMN2)89Ahmb Smn1tm1Msd/J assessed as mouse survival beyond PND50 at 1 to 3 mg/kg, ip qd administered from PND3 to PND23 followed by 1 to 3 mg/kg/day via oral gavage from PND24 to PND65; assay type: functional
# [5] = test system: Mus musculus; experiment: Increase in body weight of delta7 mouse harboring FVB.Cg-Tg(SMN2 delta7)4299Ahmb Tg(SMN2)89Ahmb Smn1tm1Msd/J assessed as mouse body weight beyond PND50 at 1 to 3 mg/kg, ip qd administered from PND3 to PND23 followed by 1 to 3 mg/kg/day via oral gavage from PND24 to PND65; assay type: functional, organism-based
# [6] = AUC in plasma of wild type mouse at 3 mg/kg, ip measured on postnatal day 10; assay type: ADME, organism-based
# [7] = test system: Mus musculus; experiment: Increase in survival of delta7 mouse harboring FVB.Cg-Tg(SMN2 delta7)4299Ahmb Tg(SMN2)89Ahmb Smn1tm1Msd/J assessed as mouse survival beyond PND60 at 3 to 10 mg/kg, ip qd administered from PND3 to PND23 followed by 3 to 10 mg/kg/day via oral gavage from PND24 to PND65; assay type: functional
# [8] = test system: Mus musculus; experiment: Inhibition of mRNA splicing of SMN2 exon 7 in C/C-allele mouse harboring FVB.129(B6) Smn1tm5(Smn1/SMN2)Mrph/J assessed as increase in SMN protein level in brain at 3 mg/kg, po qd for 10 days measured 1 hr after 10th dose by HTRF assay relative to control; assay type: functional; design: scale not given: the % may be the effect or the level left
# [9] = test system: Mus musculus; experiment: Increase in body weight of delta7 mouse harboring FVB.Cg-Tg(SMN2 delta7)4299Ahmb Tg(SMN2)89Ahmb Smn1tm1Msd/J assessed as mouse body weight beyond PND60 at 3 to 10 mg/kg, ip qd administered from PND3 to PND23 followed by 3 to 10 mg/kg/day via oral gavage from PND24 to PND65; assay type: functional, organism-based
# [10] = Unbound AUC in plasma of wild type mouse at 3 mg/kg, ip measured on postnatal day 10; assay type: ADME, organism-based; details: in vivo
# [11] = test system: Mus musculus; experiment: as §1, with “brain” for “quadriceps”; assay type: functional; design: scale not given: the % may be the effect or the level left
# [12] = species on record: Homo sapiens; experiment: Inhibition of mRNA splicing of SMN2 exon 7 in spinal motor neurons derived from human SMA type 1/2 patient induced pluripotent stem cells assessed as increase in SMN protein level at 0.01 to 1 uM by HTRF assay; design: scale not given: the % may be the effect or the level left
# [13] = Mutagenicity in Salmonella typhimurium TA1535 assessed as increase in revertant colonies after 2 days in presence of rat liver S9 fraction by Ames test relative to control; assay type: toxicity; details: salmonella enterica subsp. enterica serovar typhimurium, s9, 48 h
# [14] = species on record: Homo sapiens; experiment: Inhibition of mRNA splicing of SMN2 exon 7 in fibroblasts derived from human SMA type 1 patient assessed as increase in SMN protein level at 0.01 to 10 uM by HTRF assay
# [15] = test system: Mus musculus; experiment: Inhibition of mRNA splicing of human SMN2 exon 7 in transgenic SMA C/C-allele mouse brain assessed as increase in SMN protein level administered orally qd for 10 days; assay type: functional, organism-based
# [16] = test system: Mus musculus; experiment: Increase in body weight of delta7 mouse harboring FVB.Cg-Tg(SMN2 delta7)4299Ahmb Tg(SMN2)89Ahmb Smn1tm1Msd/J at 0.03 to 0.1 mg/kg, ip qd administered from PND3 to PND23 followed by 0.03 to 0.1 mg/kg/day via oral gavage from PND24 to PND65; assay type: functional, organism-based
# [17] = AUC in plasma of wild type mouse at 1 mg/kg, ip measured on postnatal day 10; assay type: ADME, organism-based
# [18] = Unbound AUC in plasma of wild type mouse at 1 mg/kg, ip measured on postnatal day 10; assay type: ADME, organism-based; details: in vivo
# [19] = test system: Mus musculus; experiment: as §1, with “in brain” for “in quadriceps”, “at 0.1” for “at 3”; assay type: functional; design: scale not given: the % may be the effect or the level left
# [20] = test system: Mus musculus; experiment: as §1, with “at 0.1” for “at 3”; assay type: functional; design: scale not given: the % may be the effect or the level left
# [21] = test system: Mus musculus; experiment: Increase in survival of delta7 mouse harboring FVB.Cg-Tg(SMN2 delta7)4299Ahmb Tg(SMN2)89Ahmb Smn1tm1Msd/J at 0.03 to 0.1 mg/kg, ip qd administered from PND3 to PND23 followed by 0.03 to 0.1 mg/kg/day via oral gavage from PND24 to PND65; assay type: functional, organism-based
SMILES,Activity [1],Activity [3],Survival [4],Activity [5],AUC [6],Survival [7],Activity [8],Activity [9],fAUC [10],Activity [11],Activity [13],other results
CCc1nc(C)cn2nc(-c3cc(=O)n4cc(C5CCN(C)CC5)cc(C)c4n3)cc12,160%,Dose-dependent effect,80 - 90%,Active,5900 ng·h/mL,80 - 90%,19%,Active,118 ng·h/mL,135%,Non-Toxic,inhibition [2]: Dose-dependent effect; Activity [12]: 60 to 80%; inhibition [14]: Active; inhibition [15]: Dose-dependent effect
Cc1cn2cc(-c3cc(=O)n4cc(N5CCN(C)CC5)ccc4n3)cc(C)c2n1,130%,Dose-dependent effect,80 - 90%,Active,1300 ng·h/mL,80 - 90%,0%,Active,208 ng·h/mL,162%,Non-Toxic,–
Cc1cn2cc(-c3cc(=O)n4cc(N5CCN(C)CC5)ccc4n3)cc(F)c2n1,–,–,–,–,–,–,60%,–,–,–,Non-Toxic,Activity [16]: Active; AUC [17]: 4300 ng·h/mL; fAUC [18]: 721 ng·h/mL; Activity [19]: 72%; Activity [20]: 107%; Activity [21]: Active
